Results published in US12065429B2, “Small molecule modulators of IL-17” (LEO Pharma A/S, priority 2022, dated 2024).
≈ marks a conversion by molar mass, not a printed value.

Assays:
[1] = Human liver microsome (HLM) clearance assay; format: in vitro ADME; settings: human liver microsomes 0.5 mg/mL, NADPH 1 mM, 0.5 μM compound, 40 min
Experimental: Example 63: Human Liver Microsome (HLM) Clearance Assay
Samples were taken out before addition of NADPH, and at 5, 10, 20 and 40 minutes thereafter and protein precipitation using cold acetonitrile with added internal standard was performed prior to centrifugation and sample analysis using compound specific LCMS/MS methods. Control incubations in buffer and without NADPH were performed in the same manner. Compound depletion was determined and apparent clearance (CLapp) was calculated.

Solubility assay = format: physicochemical; settings: aqueous buffer, kinetic from dmso stock; 0.067 M phosphate buffer pH 6.5, 24 hours shaking, from 10 mM DMSO stock
Experimental: After centrifugation, the supernatant was analyzed by HPLC-UV. The solubility was defined as the concentration of the test substance in the selected solvent. It was determined by correlation with an external standard calibration curve.

Compound: Cc1cc(-c2ccc(NC(=O)[C@@H](NC(=O)c3ccnn3CC3CC(F)(F)C3)C(C3CC3)C3CC3)nc2F)c(C)[n+]([O-])c1 [Example 32, N-[(1S)-1-(dicyclopropylmethyl)-2-[[5-(2,5-dimethyl-1-oxido-pyridin-1-ium-3-yl)-6-fluoro-2-pyridyl]amino]-2-oxo-ethyl]-2-[(3,3-difluorocyclobutyl)methyl]pyrazole-3-carboxamide]
- HLM Clapp [1]: 23 mL/min/kg

Compound: Cc1cc[n+]([O-])c(C)c1-c1ccc(NC(=O)[C@@H](NC(=O)c2ccnn2C(C)C)C(C2CC2)C2CC2)nc1F [Example 4, N-[(1S)-1-(dicyclopropylmethyl)-2-[[5-(2,4-dimethyl-1-oxido-pyridin-1-ium-3-yl)-6-fluoro-2-pyridyl]amino]-2-oxo-ethyl]-2-isopropyl-pyrazole-3-carboxamide]
- HLM Clapp [1]: 9 mL/min/kg
- solubility at 24 h (Solubility assay): 74 µg/mL (≈ 142 µM)

Compound: Cc1cc(-c2ccc(NC(=O)[C@@H](NC(=O)c3ccnn3C3CCC3)C(C3CC3)C3CC3)nc2F)c(C)[n+]([O-])c1 [Example 25, 2-cyclobutyl-N-[(1S)-1-(dicyclopropylmethyl)-2-[[5-(2,5-dimethyl-1-oxido-pyridin-1-ium-3-yl)-6-fluoro-2-pyridyl]amino]-2-oxo-ethyl]pyrazole-3-carboxamide]
- HLM Clapp [1]: 250 mL/min/kg

Compound: CC(C)n1nccc1C(=O)N[C@H](C(=O)Nc1ccc(-c2ccc[n+]([O-])c2C2CC2)c(F)n1)C(C1CC1)C1CC1 [Example 7, N-[(1S)-2,2-dicyclopropyl-1-[[5-(2-cyclopropyl-1-oxido-pyridin-1-ium-3-yl)-6-fluoro-2-pyridyl]carbamoyl]ethyl]-2-isopropyl-pyrazole-3-carboxamide]
- HLM Clapp [1]: <8 mL/min/kg
- solubility at 24 h (Solubility assay): 38 µg/mL (≈ 71.3 µM)

Compound: Cc1cc(-c2ccc(NC(=O)[C@@H](NC(=O)c3ccnn3C3CC3)C(C3CC3)C3CC3)nc2F)c(C)[n+]([O-])c1 [Example 27, 2-cyclopropyl-N-[(1S)-1-(dicyclopropylmethyl)-2-[[5-(2,5-dimethyl-1-oxido-pyridin-1-ium-3-yl)-6-fluoro-2-pyridyl]amino]-2-oxo-ethyl]pyrazole-3-carboxamide]
- HLM Clapp [1]: <8 mL/min/kg

Compound: Cc1cc(-c2ccc(NC(=O)[C@@H](NC(=O)c3ccnn3CC3CC3)C(C3CC3)C3CC3)nc2F)c(C)[n+]([O-])c1 [Example 29, 2-(cyclopropylmethyl)-N-[(1S)-1-(dicyclopropylmethyl)-2-[[5-(2,5-dimethyl-1-oxido-pyridin-1-ium-3-yl)-6-fluoro-2-pyridyl]amino]-2-oxo-ethyl]pyrazole-3-carboxamide]
- HLM Clapp [1]: 8 mL/min/kg

Compound: Cc1c(-c2ccc(NC(=O)[C@@H](NC(=O)c3ccnn3C(C)C)C(C3CC3)C3CC3)nc2F)cc(C(F)F)c[n+]1[O-] [Example 49, N-[(1S)-1-(dicyclopropylmethyl)-2-[[5-[5-(difluoromethyl)-2-methyl-1-oxido-pyridin-1-ium-3-yl]-6-fluoro-2-pyridyl]amino]-2-oxo-ethyl]-2-isopropyl-pyrazole-3-carboxamide]
- HLM Clapp [1]: <8 mL/min/kg
- solubility at 24 h (Solubility assay): 18 µg/mL (≈ 32.3 µM)

Compound: CCc1c(-c2ccc(NC(=O)[C@@H](NC(=O)c3ccnn3C(C)C)C(C3CC3)C3CC3)nc2F)ccc[n+]1[O-] [Example 5, N-[(1S)-1-(dicyclopropylmethyl)-2-[[5-(2-ethyl-1-oxido-pyridin-1-ium-3-yl)-6-fluoro-2-pyridyl]amino]-2-oxo-ethyl]-2-isopropyl-pyrazole-3-carboxamide]
- HLM Clapp [1]: <8 mL/min/kg
- solubility at 24 h (Solubility assay): 35 µg/mL (≈ 67.2 µM)

Compound: CC(C)n1nccc1C(=O)N[C@H](C(=O)Nc1ccc(-c2c[n+]([O-])ccc2C(F)(F)F)c(F)n1)C(C1CC1)C1CC1 [Example 6, N-[(1S)-1-(dicyclopropylmethyl)-2-[[6-fluoro-5-[1-oxido-4-(trifluoromethyl)pyridin-1-ium-3-yl]-2-pyridyl]amino]-2-oxo-ethyl]-2-isopropyl-pyrazole-3-carboxamide]
- HLM Clapp [1]: 14 mL/min/kg
- solubility at 24 h (Solubility assay): 5 µg/mL (≈ 8.92 µM)

Compound: CC(C)n1nccc1C(=O)N[C@H](C(=O)Nc1ccc(-c2c[n+]([O-])ccc2C(F)F)c(F)n1)C(C1CC1)C1CC1 [Example 51, N-[(1S)-1-(dicyclopropylmethyl)-2-[[5-[4-(difluoromethyl)-1-oxido-pyridin-1-ium-3-yl]-6-fluoro-2-pyridyl]amino]-2-oxo-ethyl]-2-isopropyl-pyrazole-3-carboxamide]
- HLM Clapp [1]: <8 mL/min/kg
- solubility at 24 h (Solubility assay): 25 µg/mL (≈ 46.1 µM)

Compound: Cc1c(-c2ccc(NC(=O)[C@@H](NC(=O)c3ccnn3C(C)C)C(C3CC3)C3CC3)nc2F)ccc[n+]1[O-] [Example 16, N-[(1S)-1-(dicyclopropylmethyl)-2-[[6-fluoro-5-(2-methyl-1-oxido-pyridin-1-ium-3-yl)-2-pyridyl]amino]-2-oxo-ethyl]-2-isopropyl-pyrazole-3-carboxamide]
- HLM Clapp [1]: <8 mL/min/kg
- solubility at 24 h (Solubility assay): 60 µg/mL (≈ 118 µM)

Compound: Cc1cc(-c2ccc(NC(=O)[C@@H](NC(=O)c3cnnn3C(C)C)C(C3CC3)C3CC3)nc2F)c(C)[n+]([O-])c1 [Example 23, N-[(1S)-1-(dicyclopropylmethyl)-2-[[5-(2,5-dimethyl-1-oxido-pyridin-1-ium-3-yl)-6-fluoro-2-pyridyl]amino]-2-oxo-ethyl]-3-isopropyl-triazole-4-carboxamide]
- HLM Clapp [1]: <8 mL/min/kg

Compound: Cc1cc(-c2ccc(NC(=O)[C@@H](NC(=O)c3conc3C(C)C)C(C3CC3)C3CC3)nc2F)c(C)[n+]([O-])c1 [Example 22, N-[(1S)-1-(dicyclopropylmethyl)-2-[[5-(2,5-dimethyl-1-oxido-pyridin-1-ium-3-yl)-6-fluoro-2-pyridyl]amino]-2-oxo-ethyl]-3-isopropyl-isoxazole-4-carboxamide]
- HLM Clapp [1]: 73 mL/min/kg
- solubility at 24 h (Solubility assay): 28 µg/mL (≈ 53.7 µM)

Compound: Cc1c(-c2ccc(NC(=O)[C@@H](NC(=O)c3ccnn3C(C)C)C(C3CC3)C3CC3)nc2Cl)cc(F)c[n+]1[O-] [Example 19, N-[(1S)-1-[[6-chloro-5-(5-fluoro-2-methyl-1-oxido-pyridin-1-ium-3-yl)-2-pyridyl]carbamoyl]-2,2-dicyclopropyl-ethyl]-2-isopropyl-pyrazole-3-carboxamide]
- HLM Clapp [1]: <8 mL/min/kg
- solubility at 24 h (Solubility assay): 18 µg/mL (≈ 33.3 µM)

Compound: Cc1cc(-c2ccc(NC(=O)[C@@H](NC(=O)c3ccnn3C(C)C)C(C3CC3)C3CC3)nc2Cl)c(C)[n+]([O-])c1 [Example 18, N-[(1S)-1-[[6-chloro-5-(2,5-dimethyl-1-oxido-pyridin-1-ium-3-yl)-2-pyridyl]carbamoyl]-2,2-dicyclopropyl-ethyl]-2-isopropyl-pyrazole-3-carboxamide]
- HLM Clapp [1]: <8 mL/min/kg
- solubility at 24 h (Solubility assay): 26 µg/mL (≈ 48.4 µM)

Compound: Cc1c(-c2ccc(NC(=O)[C@@H](NC(=O)c3ccnn3C(C)C)C(C3CC3)C3CC3)nc2F)cc(C(F)(F)F)c[n+]1[O-] [Example 12, N-[(1S)-1-(dicyclopropylmethyl)-2-[[6-fluoro-5-[2-methyl-1-oxido-5-(trifluoromethyl)pyridin-1-ium-3-yl]-2-pyridyl]amino]-2-oxo-ethyl]-2-isopropyl-pyrazole-3-carboxamide]
- HLM Clapp [1]: <8 mL/min/kg
- solubility at 24 h (Solubility assay): 6 µg/mL (≈ 10.4 µM)

Compound: Cc1cc(-c2ccc(NC(=O)[C@@H](NC(=O)c3ccnn3CC(C)C)C(C3CC3)C3CC3)nc2F)c(C)[n+]([O-])c1 [Example 28, N-[(1S)-1-(dicyclopropylmethyl)-2-[[5-(2,5-dimethyl-1-oxido-pyridin-1-ium-3-yl)-6-fluoro-2-pyridyl]amino]-2-oxo-ethyl]-2-isobutyl-pyrazole-3-carboxamide]
- HLM Clapp [1]: >750 mL/min/kg

Compound: CC(C)n1nccc1C(=O)N[C@H](C(=O)Nc1ccc(-c2c[n+]([O-])cc(F)c2C(F)(F)F)c(F)n1)C(C1CC1)C1CC1 [Example 50, N-[(1S)-1-(dicyclopropylmethyl)-2-[[6-fluoro-5-[5-fluoro-1-oxido-4-(trifluoromethyl)pyridin-1-ium-3-yl]-2-pyridyl]amino]-2-oxo-ethyl]-2-isopropyl-pyrazole-3-carboxamide]
- HLM Clapp [1]: 10 mL/min/kg
- solubility at 24 h (Solubility assay): < 1 µg/mL

Compound: Cc1c(-c2ccc(NC(=O)[C@@H](NC(=O)c3ccnn3C(C)C)C(C3CC3)C3CC3)nc2F)cc(OCF)c[n+]1[O-] [Example 9, N-[(1S)-1-(dicyclopropylmethyl)-2-[[6-fluoro-5-[5-(fluoromethoxy)-2-methyl-1-oxido-pyridin-1-ium-3-yl]-2-pyridyl]amino]-2-oxo-ethyl]-2-isopropyl-pyrazole-3-carboxamide]
- HLM Clapp [1]: <8 mL/min/kg
- solubility at 24 h (Solubility assay): 23 µg/mL (≈ 41.5 µM)

Compound: Cc1cc(-c2ccc(NC(=O)[C@@H](NC(=O)c3ccnn3CC(F)F)C(C3CC3)C3CC3)nc2F)c(C)[n+]([O-])c1 [Example 24, N-[(1S)-1-(dicyclopropylmethyl)-2-[[5-(2,5-dimethyl-1-oxido-pyridin-1-ium-3-yl)-6-fluoro-2-pyridyl]amino]-2-oxo-ethyl]-2-(2,2-difluoroethyl)pyrazole-3-carboxamide]
- HLM Clapp [1]: <8 mL/min/kg

Compound: CC(C)n1nccc1C(=O)N[C@H](C(=O)Nc1ccc(-c2c[n+]([O-])ccc2C2CC2)c(F)n1)C(C1CC1)C1CC1 [Example 47, N-[(1S)-2,2-dicyclopropyl-1-[[5-(4-cyclopropyl-1-oxido-pyridin-1-ium-3-yl)-6-fluoro-2-pyridyl]carbamoyl]ethyl]-2-isopropyl-pyrazole-3-carboxamide]
- HLM Clapp [1]: <8 mL/min/kg

Compound: Cc1cc(-c2ccc(NC(=O)[C@@H](NC(=O)c3ccnn3C(F)F)C(C3CC3)C3CC3)nc2F)c(C)[n+]([O-])c1 [Example 26, N-[(1S)-1-(dicyclopropylmethyl)-2-[[5-(2,5-dimethyl-1-oxido-pyridin-1-ium-3-yl)-6-fluoro-2-pyridyl]amino]-2-oxo-ethyl]-2-(difluoromethyl)pyrazole-3-carboxamide]
- HLM Clapp [1]: <8 mL/min/kg
